The values that follow come from patent publication US9320723B2, “Methods of treating thyroid eye disease” (University of Rochester, priority 2010, dated 2016).

Test [1] has as its system human orbital fibroblasts. Description: qRT-PCR of HAS mRNA after TGF-β1 with or without Pio or Rosi. It is filed as cell-based. To be noted: 2 ng/ml TGF-β1, 6 hours. The source says:
RNA was isolated from orbital fibroblast strains using the RNeasy Mini kit according to the manufacturer's protocol (Qiagen, Valencia, Calif.) and reverse transcripted to cDNA using iScript cDNA synthesis kit (Bio-Rad, Hercules, Calif.). Primers for human HAS1, 2, 3 and 7S as well as qRT-PCR method to detect relative abundance of mRNA are identified supra. Primers for human PPARγ1 (NM138711) and PPARγ 2 (NM015869) mRNA were 5′-AAAGAAGCCGA-CACTAAACC-3′ (SEQ ID NO:3) (sense), 5′-CTTCCATTACGG-AGAGATCC-3′ (SEQ ID NO:4) (antisense) and, 5′-GCGATTC-CTTCACTGATAC-3′ (SEQ ID NO:5) (sense), 5′-CTTCCATT-ACGGAGAGATCC-3′ (SEQ ID NO:6) (antisense), respectively.
In general terms: Quantitative PCR measures a nucleic acid by following its amplification.

Test [2] relates to human orbital fibroblasts. Put plainly: Quantitation of secreted, pericellular and intracellular HA by ELISA, TGF-β1 treatment. It is filed as cell-based. On the procedure:
Confluent monolayers of orbital fibroblasts were serum starved in 0.5% FBS RPMI-1640 medium for three days and pretreated with different concentrations of Pio or Rosi for 1 hour and then treated with or without 2 ng/ml TGF-β1 for 24 hours. After treatments, an aliquot of culture medium (secreted HA) was removed and centrifuged at 8,000×g at 4° C. for 5 minutes and the supernatant was saved for later analysis. The cells were washed twice with PBS and treated with 0.25% trypsin-EDTA solution (GIBCO, Invitrogen) at 37° C. for 5 minutes, the reaction was stopped by addition of culture medium and cell number was determined using a hemocytometer. The cells were then centrifuged and the supernatant was collected and incubated at 100° C. for 10 minutes to inactivate trypsin activity. This supernatant was saved for pericellular HA detection. The cell pellet was washed with PBS once and digested with 120 μg/ml proteinase K in 0.1% SDS/0.1 M Tris-HCl (pH 7.6) at 37° C. for 1 hour, and proteinase K was inactivated by incubation at 100° C. for 10 min. The cell lysate was centrifuged and supernatant analyzed for intracellular HA.
The amount of HA in each extract (secreted HA, pericellular HA and intracellular HA) was measured by ELISA based on the specific interaction of HA with HA binding protein (HABP). The HA detection kit was purchased from R&D system (Minneapolis, Minn.). Briefly, diluted samples were incubated in HABP-coated microwells, allowing HA present in samples to react with the immobilized HABP. After extensive washing, biotinylated HABP was added to the microwells to form complexes with bound HA. Following another round of washing, streptavidin conjugated horseradish peroxidase was added. After a brief incubation period and washing, chromogenic substrate was added and HA levels were determined using a Varioskan Flash plate reader (Thermo Fisher Scientific, Milford, Mass.). A fraction of the samples were pretreated with Streptomyces hyaluronidase (2 U/ml at 37° C. for 2 hour) before subjected to the ELISA assay as a negative control. Furthermore, an additional 50 ng/ml (final concentration) of free soluble HA was added to a fraction of the cell lysate samples to confirm that there are no inhibitory factors present and that the assays show the expected additivity when a known amount of exogenous HA is included.
For orientation: ELISA stands for enzyme-linked immunosorbent assay.

For a further test, the system named is orbital fibroblasts. Put plainly: Immunofluorescence staining of HA with biotinylated HABP. It counts as cell-based, human. Conditions: 2 ng/ml TGF-β1, 24 hours. On the procedure: Orbital fibroblasts were cultured in 8-chamber slides (BD REF354108) and fixed in room temperature 3% paraformaldehyde in PBS and stained with 1 μg/ml biotinylated HABP (Seikagaku, Cape Cod) followed by Cy3-conjugated streptavidin (Jackson laboratories, West Grove, Pa.). F-actin was stained with Phalloidin (Molecular Probes). In some cultures, orbital fibroblasts were treated with Streptomyces hyaluronidase prior to staining T cells were stained with an anti-CD3 monoclonal antibody (clone UCHT, SouthernBiotech, Birmingham, Ala.) followed by a goat anti-mouse antibody labeled with Alexa-488 (Molecular Probes). DAPI (10 μg/ml, Anaspec, San Jose, Calif.) was used for nuclear staining.

The subject of test [3] is human peripheral blood T cells adhering to orbital fibroblasts. Put plainly: T cell adhesion assay. It counts as cell-based. To be noted: fibroblasts treated with 2 ng/ml TGF-β1, 24 hours.
Description: Confluent orbital fibroblasts in a 96-well plate were serum starved and incubated with different concentrations of Pio or Rosi treated with or without 2 ng/ml TGF1 for 24 hours. In some cultures, orbital fibroblasts were treated with Streptomyces hyaluronidase (100 mU/ml at 37° C. for 1 hour) prior to the adhesion assay to deplete endogenous HA. Adhesion Test. Immediately before the adhesion assay, the conditioned medium of orbital fibroblasts was removed to eliminate treatments and secreted ECM. 1×10^5/well of Calcein AM labeled T cells were added to a 96-well plate with a confluent orbital fibroblast monolayer and allowed to adhere for 90 min at 4° C. as previously described. Plates were washed three times with the addition of 200 ul of PBS followed by plate inversion and gentle tapping to remove the wash solution. Fluorescence was measured with an excitation of 485 nm and detection of 535 nm, in a Varioskan Flash plate reader (Thermo Electron Corporation).
Setting [4] is: 2 ng/ml TGF-β1, 24 hours, strain #1, compared to vehicle.

With “TGF-β1: Recombinant human TGF-β1 purchased from Calbiochem”, in test [1], the “HAS3 mRNA levels” value is given as “remained unchanged”, the “increase of HAS1 mRNA levels” value is on record as “about 50 fold” and the “increase of HAS2 mRNA levels” value is reported as roughly 6 fold. In addition, the “intracellular HA levels” value in test [2] (2 ng/ml TGF-β1, 24 hours) is given as “had no effect on intracellular HA levels”. Also, in test [2] (setting [4]), the “increase of pericellular HA levels” value came out at 8.34±1.33 fold and the “increase of secreted HA levels” value stood at 12.16±0.15 fold. Besides, the “share of newly synthesized HA secreted into the ECM” value in test [2] (TGF-β1 mediated) was “about 70%”. Also, in test [2] (fibroblasts treated with TGF-β1, strain #1), the “secreted HA compared with pericellular HA” value is reported as 2.31±0.36 fold. Also, in the test with orbital fibroblasts, the “HA staining (immunofluorescence)” value is “HA staining is more pronounced and forms microvillus-like protrusions”. Also, the “adhesion of T cells to orbital fibroblasts” value in test [3] is on record as “significantly increased compared to untreated control fibroblasts”.
